One compound from publication PMC12249711, “Comprehensive Evaluation of 1H-Isoindole-1,3(2H)-Dione Derivatives: Pharmacokinetic Studies and Analgesic Potential in Various Pain Models” (International Journal of Molecular Sciences, 2025) can be followed below.

Experiment [1] concerns mice. Description: Formalin test. The format is in vivo, Albino Swiss mice. Particulars: for Reduction of pain response, inflammatory phase: phase II (15–30 min). How it is done: The pain reaction was induced by intraplantar (i.pl.) injection of 20 μL of 2.5% formalin solution into the right hind paw of the mouse (n = 136). […] Time (in seconds) spent on licking or biting the injected hind paw in selected intervals, 0–5 min (neurogenic phase) and 15–30 min (inflammatory phase), was measured in each group and was an indicator of nociceptive behavior. The procedure was based on the method described by with some modifications by.

The test system of experiment [2] is rats. Kind of experiment: Carrageenan-induced mechanical hyperalgesia (pain pressure threshold, Randall-Selitto). The format is in vivo, Wistar rats. To be noted: for Pain Threshold: 20 mg/kg i.p., mean ± SEM, rats; for Increase in pain threshold: 20 mg/kg, vs control. How it is done:
The acute and local inflammation and paw edema was induced by intraplantar (i.pl.) injection of 0.1 mL of 1% carrageenan solution in PBS into the rat’s right hind paw, according to the modified method of Winter and Lence, as described previously; (n = 84). The paw volume was measured using the dislocation of the water column of the plethysmometer (Type a, 7140; Plethysmometer, Ugo Basile, Gemonio, Italy) before (V0) and at 1, 2, and 3 h (V1, V2, V3) after i.pl. carrageenan injection. […] Vehicle (1% Tween 80) was administered by the same route as the tested compounds.
Furthermore, we performed the pain pressure threshold test to assess heightened sensitivity to mechanical stimuli. The experiment was conducted based on the method described by Randall and Selitto [58], with certain modifications. An analgesymeter (AnalgesyMeter 37215, Ugo Basile, Gemonio, Italy) was used to gradually apply increasing pressure (measured in grams) to the plantar surface of the right hind paw of the rat until paw withdrawal occurred. At this point, the intensity of the applied force (in grams) was recorded as the withdrawal threshold. The maximum force intensity was set at 250 g. Carrageenan induces a decrease in the nociceptive threshold in response to a mechanical stimulus, a condition referred to as hyperalgesia. For each rat, paw withdrawal thresholds were recorded both before (0 h) and 1, 2, and 3 h after carrageenan administration (i.e., 3.5 h after intraperitoneal pretreatment with the tested compounds). […] The analgesic effect of the tested compounds was assessed in comparison with the control group (1% Tween 80); the injection was performed intraperitoneally within 30 min of carrageenan administration. An analgesic effect occurs when the compound administered produces a pain response with greater pressure than the control group.

On to `CC(C(=O)O)c1cccc(C(=O)c2ccccc2)c1` (stereo not drawn) [Ketoprofen, ketoprofen, reference compound], for which, in experiment [1] (phase I (0–5 min), 20 mg/kg i.p., vs vehicle), the “Reduction of pain reaction (licking duration), neurogenic phase” value stood at 59.7%. The “Reduction of neurogenic pain, neurogenic phase” value in experiment [1] (phase I, ketoprofen doses other than 20 mg/kg) is “did not show a statistically significant reduction”. In addition, the “Reduction of pain response, inflammatory phase” value was found to be 23.2% in experiment [1] (10 mg/kg i.p., vs vehicle); 59.9% in experiment [1] (20 mg/kg i.p., vs vehicle); 71.8% in experiment [1] (50 mg/kg, vs vehicle). The “Pain Threshold” value came to 130 ± 2.9 g in experiment [2] (0 h (before carrageenan)), 155.8 ± 5.2 g in experiment [2] (1 h after carrageenan), 187.5 ± 9.0 g in experiment [2] (2 h after carrageenan) and 178.3 ± 11.7 g in experiment [2] (3 h after carrageenan). For the same compound, the “Increase in pain threshold” value in experiment [2] (1 h) was 19.8%; in experiment [2] (2 h) it was 38%; in experiment [2] (3 h), 33.8%.
